Results as given in ChEMBL document CHEMBL1155947, “Discovery of a novel series of benzoic acid derivatives as potent and selective human beta3 adrenergic receptor agonists with good oral bioavailability. 3. Phenylethanolaminotetraline (PEAT) skeleton containing biphenyl or biphenyl ether moiety” (J Med Chem, 2008).

How the values were obtained:
[1] = biological target: Beta-3 adrenergic receptor (Homo sapiens, UniProt P13945); assay: Agonist activity at human cloned beta3 adrenergic receptor expressed in CHO cells assessed as cAMP accumulation; assay type: functional, cell-based
Homo sapiens = species on record: Homo sapiens; assay: Ratio of EC50 for human cloned beta-1 adrenergic receptor to EC50 for human cloned beta3 adrenergic receptor
[2] = biological target: Beta-2 adrenergic receptor (Homo sapiens, UniProt P07550); assay: Agonist activity at human beta2 adrenergic receptor expressed in CHO cells assessed as cAMP accumulation; assay type: functional, cell-based
[3] = Cmax in dog at 0.2 mg/kg, po by cassette assay; assay type: ADME, organism-based, Canis lupus familiaris; design: dose 0.2 mg/kg, route oral; details: in vivo
[4] = AUC (0 to 24 hrs) in dog at 0.2 mg/kg, po by cassette assay; assay type: ADME, organism-based, Canis lupus familiaris; design: time < 24 hr, dose 0.2 mg/kg, route oral; details: plasma
[5] = Cmax in rat at 1.0 mg/kg, po; assay type: ADME, organism-based; design: dose 1 mg/kg, route oral; details: in vivo
[6] = AUC (0 to 24 hrs) in rat at 1.0 mg/kg, po; assay type: ADME, organism-based; design: time < 24 hr, dose 1 mg/kg, route oral; details: plasma
[7] = Terminal half life in dog at 0.12 mg/kg, iv by cassette assay; assay type: ADME, organism-based, Canis lupus familiaris; design: dose 0.12 mg/kg, route intravenous; details: in vivo
[8] = Total clearance in dog at 0.12 mg/kg, iv by cassette assay; assay type: ADME, organism-based, Canis lupus familiaris; design: dose 0.12 mg/kg, route intravenous; details: in vivo
[9] = Oral bioavailability in dog at 0.12 mg/kg by cassette assay; assay type: ADME, organism-based, Canis lupus familiaris; details: in vivo
[10] = Terminal half life in rat at 0.32 mg/kg, iv; assay type: ADME, organism-based; design: dose 0.32 mg/kg, route intravenous; details: in vivo
[11] = Total clearance in rat at 0.32 mg/kg, iv; assay type: ADME, organism-based; design: dose 0.32 mg/kg, route intravenous; details: in vivo
[12] = Oral bioavailability in rat at 0.32 mg/kg; assay type: ADME, organism-based; details: in vivo
[13] = biological target: Beta-1 adrenergic receptor (Homo sapiens, UniProt P08588)
Description: Agonist activity at human cloned beta-1 adrenergic receptor expressed in CHO cells assessed as cAMP accumulation

[14] = Oral bioavailability in rat at 0.83 mg/kg; assay type: ADME, organism-based; details: in vivo
[15] = Oral bioavailability in dog at 0.83 mg/kg; assay type: ADME, organism-based, Canis lupus familiaris; details: in vivo
[16] = Oral bioavailability in monkey at 0.83 mg/kg; assay type: ADME, organism-based, Macaca mulatta; details: rhesus monkey, in vivo
Canis familiaris [17] = assay: Inhibition of carbachol-induced increase of intravesical pressure in Beagle dog OAB model at 32 ug/kg,; assay type: functional; details: Canis lupus familiaris
[18] = Protein binding in Beagle dog serum at 32 ug/kg, iv; assay type: ADME, organism-based, Canis lupus familiaris; details: 0.032 mg/kg, read-out: PB (converted)
Canis familiaris [19] = assay: Ratio of Cmax for drug to Cmax for 3-[((7S)-7-{[(2R)-2-(3-Chlorophenyl)-2-hydroxyethyl]amino}-5,6,7,8-tetrahydro-2-naphthalenyl)oxy]benzoic acid hydrochloride in dog at 0.1 or 0.20 mg/kg, po by cassette dosing assay; assay type: ADME, organism-based, Canis lupus familiaris; design: dose 0.2 mg/kg, route oral; details: in vivo, 0.2 mg/kg
Canis familiaris [20] = assay: Ratio of AUC for drug to AUC for 3-[((7S)-7-{[(2R)-2-(3-Chlorophenyl)-2-hydroxyethyl]amino}-5,6,7,8-tetrahydro-2-naphthalenyl)oxy]benzoic acid hydrochloride in dog at 0.1 or 0.20 mg/kg, po by cassette dosing assay; assay type: ADME, organism-based, Canis lupus familiaris; design: dose 0.2 mg/kg, route oral; details: in vivo, 0.2 mg/kg
[21] = Cmax in monkey at 1.0 mg/kg, po by cassette assay; assay type: ADME, organism-based, Macaca mulatta; design: dose 1 mg/kg, route oral; details: rhesus monkey, in vivo
[22] = AUC (0 to 24 hrs) in monkey at 1.0 mg/kg, po by cassette assay; assay type: ADME, organism-based, Macaca mulatta; design: time < 24 hr, dose 1 mg/kg, route oral; details: rhesus monkey, plasma
[23] = Cmax in rat at 1.0 mg/kg, po by cassette assay; assay type: ADME, organism-based; design: dose 1 mg/kg, route oral; details: in vivo
[24] = AUC (0 to 24 hrs) in rat at 1.0 mg/kg, po by cassette assay; assay type: ADME, organism-based; design: time < 24 hr, dose 1 mg/kg, route oral; details: plasma
[25] = Terminal half life in rat at 0.51 mg/kg, iv by cassette assay; assay type: ADME, organism-based; design: dose 0.51 mg/kg, route intravenous; details: in vivo
[26] = Total clearance in rat at 0.51 mg/kg, iv by cassette assay; assay type: ADME, organism-based; design: dose 0.51 mg/kg, route intravenous; details: in vivo
[27] = Oral bioavailability in rat at 0.51 mg/kg by cassette assay; assay type: ADME, organism-based; details: in vivo
[28] = Terminal half life in monkey at 0.32 mg/kg, iv by cassette assay; assay type: ADME, organism-based, Macaca mulatta; design: dose 0.32 mg/kg, route intravenous; details: rhesus monkey, in vivo
[29] = Total clearance in monkey at 0.32 mg/kg, iv by cassette assay; assay type: ADME, organism-based, Macaca mulatta; design: dose 0.32 mg/kg, route intravenous; details: rhesus monkey, in vivo
[30] = Oral bioavailability in monkey at 0.32 mg/kg by cassette assay; assay type: ADME, organism-based, Macaca mulatta; details: rhesus monkey, in vivo
[31] = Terminal half life in dog at 0.1 mg/kg, iv by cassette assay; assay type: ADME, organism-based, Canis lupus familiaris; design: dose 0.1 mg/kg, route intravenous; details: in vivo
[32] = Total clearance in dog at 0.1 mg/kg, iv by cassette assay; assay type: ADME, organism-based, Canis lupus familiaris; design: dose 0.1 mg/kg, route intravenous; details: in vivo
[33] = Oral bioavailability in dog at 0.1 mg/kg by cassette assay; assay type: ADME, organism-based, Canis lupus familiaris; details: in vivo
[34] = biological target: Beta-3 adrenergic receptor (Canis lupus familiaris, UniProt O02662); assay: Agonist activity at dog beta3 adrenergic receptor expressed in CHO cells assessed as cAMP accumulation; assay type: functional, cell-based
[35] = Selectivity for human beta3 adrenergic receptor over dog beta3 adrenergic receptor
Canis familiaris [36] = assay: Ratio of Cmax for drug to Cmax for 4-((7S)-7-{[(2R)-2-(3-Chlorophenyl)-2-hydroxyethyl]amino}-5,6,7,8-tetrahydro-2-naphthalenyl)benzoic acid hydrochloride in dog at 0.1 or 0.20 mg/kg, po by cassette dosing assay; assay type: ADME, organism-based, Canis lupus familiaris; design: dose 0.2 mg/kg, route oral; details: in vivo, 0.2 mg/kg
Canis familiaris [37] = assay: Ratio of AUC for drug to AUC for 4-((7S)-7-{[(2R)-2-(3-Chlorophenyl)-2-hydroxyethyl]amino}-5,6,7,8-tetrahydro-2-naphthalenyl)benzoic acid hydrochloride in dog at 0.1 or 0.20 mg/kg, po by cassette dosing assay; assay type: ADME, organism-based, Canis lupus familiaris; design: dose 0.2 mg/kg, route oral; details: in vivo, 0.2 mg/kg
[38] = Cmax in rat at 0.5 mg/kg, po by cassette assay; assay type: ADME, organism-based; design: dose 0.5 mg/kg, route oral; details: in vivo
[39] = AUC (0 to 24 hrs) in rat at 0.5 mg/kg, po by cassette assay; assay type: ADME, organism-based; design: time < 24 hr, dose 0.5 mg/kg, route oral; details: plasma
[40] = Cmax in monkey at 0.32 mg/kg, po; assay type: ADME, organism-based, Macaca mulatta; design: dose 0.32 mg/kg, route oral; details: rhesus monkey, in vivo
[41] = AUC (0 to 24 hrs) in monkey at 0.32 mg/kg, po; assay type: ADME, organism-based, Macaca mulatta; design: time < 24 hr, dose 0.32 mg/kg, route oral; details: rhesus monkey, plasma
[42] = Terminal half life in rat at 0.50 mg/kg, iv by cassette assay; assay type: ADME, organism-based; design: dose 0.5 mg/kg, route intravenous; details: in vivo, 0.5 mg/kg
[43] = Total clearance in rat at 0.50 mg/kg, iv by cassette assay; assay type: ADME, organism-based; design: dose 0.5 mg/kg, route intravenous; details: in vivo, 0.5 mg/kg
[44] = Oral bioavailability in rat at 0.50 mg/kg by cassette assay; assay type: ADME, organism-based; details: in vivo, 0.5 mg/kg
[45] = Cmax in dog at 0.32 mg/kg, po by cassette assay; assay type: ADME, organism-based, Canis lupus familiaris; design: dose 0.32 mg/kg, route oral; details: in vivo
[46] = AUC (0 to 24 hrs) in dog at 0.32 mg/kg, po by cassette assay; assay type: ADME, organism-based, Canis lupus familiaris; design: time < 24 hr, dose 0.32 mg/kg, route oral; details: plasma
[47] = Terminal half life in dog at 0.1 mg/mL, iv by cassette assay; assay type: ADME, organism-based, Canis lupus familiaris; details: in vivo
[48] = Total clearance in dog at 0.1 mg/mL, iv by cassette assay; assay type: ADME, organism-based, Canis lupus familiaris; details: in vivo
[49] = Bioavailability in dog at 0.1 mg/mL, iv by cassette assay; assay type: ADME, organism-based, Canis lupus familiaris; details: in vivo
[50] = Cmax in rat at 0.52 mg/kg, po by cassette assay; assay type: ADME, organism-based; design: dose 0.52 mg/kg, route oral; details: in vivo
[51] = AUC (0 to 24 hrs) in rat at 0.52 mg/kg, po by cassette assay; assay type: ADME, organism-based; design: time < 24 hr, dose 0.52 mg/kg, route oral; details: plasma
[52] = Cmax in dog at 0.21 mg/kg, po by cassette assay; assay type: ADME, organism-based, Canis lupus familiaris; design: dose 0.21 mg/kg, route oral; details: in vivo
[53] = AUC (0 to 24 hrs) in dog at 0.21 mg/kg, po by cassette assay; assay type: ADME, organism-based, Canis lupus familiaris; design: time < 24 hr, dose 0.21 mg/kg, route oral; details: plasma

Chain of Beta-2 adrenergic receptor (P07550 whole entry): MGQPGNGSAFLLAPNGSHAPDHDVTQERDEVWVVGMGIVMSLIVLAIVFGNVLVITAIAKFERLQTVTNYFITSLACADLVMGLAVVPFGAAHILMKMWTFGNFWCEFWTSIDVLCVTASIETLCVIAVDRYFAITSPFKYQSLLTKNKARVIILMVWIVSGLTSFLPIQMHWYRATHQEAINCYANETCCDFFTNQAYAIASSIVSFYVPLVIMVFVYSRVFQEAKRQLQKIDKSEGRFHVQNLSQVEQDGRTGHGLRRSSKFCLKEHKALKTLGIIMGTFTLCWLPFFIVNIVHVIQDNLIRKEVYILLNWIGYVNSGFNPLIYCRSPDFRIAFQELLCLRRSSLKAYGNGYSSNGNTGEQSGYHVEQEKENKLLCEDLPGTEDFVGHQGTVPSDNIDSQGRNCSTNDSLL
Chain of Beta-3 adrenergic receptor (Homo sapiens, UniProt P13945) (P13945 whole entry): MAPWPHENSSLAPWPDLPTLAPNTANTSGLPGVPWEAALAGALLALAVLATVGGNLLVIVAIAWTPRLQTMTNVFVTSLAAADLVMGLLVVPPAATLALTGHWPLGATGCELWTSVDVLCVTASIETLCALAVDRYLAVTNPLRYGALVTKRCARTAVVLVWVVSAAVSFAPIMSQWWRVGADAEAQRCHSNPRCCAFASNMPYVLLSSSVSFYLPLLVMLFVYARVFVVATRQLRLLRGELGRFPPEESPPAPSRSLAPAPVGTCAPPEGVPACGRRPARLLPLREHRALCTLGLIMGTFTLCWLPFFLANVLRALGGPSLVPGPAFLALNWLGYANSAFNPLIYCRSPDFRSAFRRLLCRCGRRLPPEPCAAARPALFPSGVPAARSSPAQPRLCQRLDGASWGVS
Chain of Beta-1 adrenergic receptor (P08588 whole entry): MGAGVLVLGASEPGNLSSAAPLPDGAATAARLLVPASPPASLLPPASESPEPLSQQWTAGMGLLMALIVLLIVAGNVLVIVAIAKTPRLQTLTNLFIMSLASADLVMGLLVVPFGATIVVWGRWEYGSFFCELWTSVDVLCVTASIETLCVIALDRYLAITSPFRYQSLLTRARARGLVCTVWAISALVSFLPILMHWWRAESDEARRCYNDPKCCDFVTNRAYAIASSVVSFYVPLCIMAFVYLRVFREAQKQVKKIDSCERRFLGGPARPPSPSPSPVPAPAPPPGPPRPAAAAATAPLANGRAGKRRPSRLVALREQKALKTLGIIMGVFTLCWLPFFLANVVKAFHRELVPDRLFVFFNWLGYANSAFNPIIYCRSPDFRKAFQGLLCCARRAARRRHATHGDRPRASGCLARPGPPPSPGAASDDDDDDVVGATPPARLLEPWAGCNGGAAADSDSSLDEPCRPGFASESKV
Chain of Beta-3 adrenergic receptor (Canis lupus familiaris, UniProt O02662) (O02662 whole entry): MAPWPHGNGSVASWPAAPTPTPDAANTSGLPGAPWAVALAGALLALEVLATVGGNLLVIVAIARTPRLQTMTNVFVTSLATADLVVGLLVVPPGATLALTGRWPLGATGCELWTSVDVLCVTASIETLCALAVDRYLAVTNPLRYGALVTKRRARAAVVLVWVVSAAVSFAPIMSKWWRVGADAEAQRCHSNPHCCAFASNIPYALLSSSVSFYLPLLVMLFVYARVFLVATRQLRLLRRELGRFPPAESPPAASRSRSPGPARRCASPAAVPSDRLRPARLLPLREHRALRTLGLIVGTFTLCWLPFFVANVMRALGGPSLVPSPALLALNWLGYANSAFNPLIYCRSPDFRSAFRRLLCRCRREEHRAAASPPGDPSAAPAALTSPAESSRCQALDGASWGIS

Compound	EC50 [1] [nM]	Ratio EC50 (Homo sapiens)	EC50 [2] [nM]	Cmax [3] [ng/mL]	AUC(0-t) at 24 h [4] [ng·h/mL]	EC50 [13] [nM]	inhibition in vivo at 0.032 mg/kg (Canis familiaris [17]) [%]	fraction unbound [18]	Ratio (Canis familiaris [19])	Ratio AUC (Canis familiaris [20])	Cmax [21] [ng/mL]	AUC(0-t) at 24 h [22] [ng·h/mL]	half-life [28] [h]	clearance [29] [mL/min/kg]	bioavailability [30] [%]	half-life [31] [h]	clearance [32] [mL/min/kg]	bioavailability [33] [%]	EC50 [34] [nM]	Selectivity ratio [35]	also measured
O=C(O)COc1ccc2c(c1)C[C@@H](NC[C@H](O)c1cccc(Cl)c1)CC2	39	38	> 10000	92.5	902	1500	–	–	–	–	–	–	–	–	–	–	–	–	–	–	Cmax [5]: 28.1 ng/mL; AUC(0-t) at 24 h [6]: 177 ng·h/mL; half-life [7]: 3.8 h; clearance [8]: 3 mL/min/kg; bioavailability [9]: 83.2%; half-life [10]: 1.18 h; clearance [11]: 52.6 mL/min/kg; bioavailability [12]: 60%
CCOC(=O)COc1ccc2c(c1)C[C@@H](NC[C@H](O)c1cccc(Cl)c1)CCC2	–	–	–	–	–	–	40.8	0.06	–	–	–	–	–	–	–	–	–	–	–	–	bioavailability [14]: 29%; bioavailability [15]: 73%; bioavailability [16]: 35%
COc1ccc(Oc2ccc3c(c2)C[C@@H](NC[C@H](O)c2ccc(Cl)nc2)CC3)cc1C(=O)O	3.6	> 277	> 1000	64.4	860	> 1000	57	0.1	0.5	0.48	59	313	8.2	15.7	28.8	5.9	3.1	76.8	46	12.8	Cmax [23]: 164 ng/mL; AUC(0-t) at 24 h [24]: 1940 ng·h/mL; half-life [25]: 15.3 h; clearance [26]: 2.5 mL/min/kg; bioavailability [27]: 27.3%
O=C(O)c1ccc(-c2ccc3c(c2)C[C@@H](NC[C@H](O)c2ccc(Cl)cc2)CC3)cc1	0.38	2410	> 1000	113	1980	917	33	0.03	–	–	–	–	7.7	6.7	81.7	14.3	1.7	> 95	25	65.8	Ratio (Canis familiaris [36]): 0.71; Ratio AUC (Canis familiaris [37]): 1.25; Cmax [38]: 65 ng/mL; AUC(0-t) at 24 h [39]: 470 ng·h/mL; Cmax [40]: 91.2 ng/mL; AUC(0-t) at 24 h [41]: 722 ng·h/mL; half-life [42]: 13.6 h; clearance [43]: 11.4 mL/min/kg; bioavailability [44]: 63.4%
O=C(O)c1cccc(Oc2ccc3c(c2)C[C@@H](NC[C@H](O)c2cccc(Cl)c2)CC3)c1	7.1	> 138	> 1000	–	–	> 1000	–	–	1	1	–	–	–	–	–	–	–	–	–	–	Cmax [45]: 151 ng/mL; AUC(0-t) at 24 h [46]: 2000 ng·h/mL; half-life [47]: 7.9 h; clearance [48]: 2.4 mL/min/kg; bioavailability [49]: 81%
COc1ccc(Oc2ccc3c(c2)C[C@@H](NC[C@H](O)c2ccc(Cl)cc2)CC3)cc1C(=O)O	4.7	> 217	> 1000	–	–	> 1000	–	–	0.64	0.76	319	1560	6.7	5.3	48	8.3	1.4	64.2	–	–	Cmax [50]: 367 ng/mL; AUC(0-t) at 24 h [51]: 4580 ng·h/mL; Cmax [52]: 103 ng/mL; AUC(0-t) at 24 h [53]: 1530 ng·h/mL; half-life [42]: 11.9 h; clearance [43]: 2 mL/min/kg; bioavailability [44]: > 95%
